Results as given in PubChem BioAssay (NCI).
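At the GI50, growth is halved. TGI: total growth inhibition.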

What was measured:
Experiment in all cases: growth of human tumour cells (NCI), 384-well format
HOP-92 NSCLC = tested on: HOP-92 NSCLC
U251 glioblastoma = tested on: U251 glioblastoma
MDA-MB-435 melanoma = tested on: MDA-MB-435 melanoma
MALME-3M melanoma = tested on: MALME-3M melanoma
NCI-H460 NSCLC = tested on: NCI-H460 NSCLC
SF-295 CNS = tested on: SF-295 CNS
HOP-62 NSCLC = tested on: HOP-62 NSCLC
T-47D breast = tested on: T-47D breast
MDA-MB-231 breast = tested on: MDA-MB-231 breast
HT29 colon = tested on: HT29 colon
NCI-H226 lung = tested on: NCI-H226 lung
COLO 205 colon = tested on: COLO 205 colon
HCC-2998 colon = tested on: HCC-2998 colon

In the case of `C=CCN(/C=C1\C(=O)O[C@H](COC)[C@@]2(C)C1=C(O)C(=O)C1=C2[C@H](OC(C)=O)C[C@]2(C)C(=O)CC[C@@H]12)CC=C`, the GI50 (HOP-92 NSCLC) is reported as 2.47 µM, the TGI (HOP-92 NSCLC) is reported as 37.6 µM and the GI50 (U251 glioblastoma) is reported as 13 µM. It also gave a TGI (U251 glioblastoma) of 82.7 µM, a GI50 (MDA-MB-435 melanoma) of 8.15 µM and a TGI (MDA-MB-435 melanoma) of 38.1 µM. For the same compound, the GI50 (MALME-3M melanoma) was 0.677 µM, the TGI (MALME-3M melanoma) was 12.2 µM and the GI50 (NCI-H460 NSCLC) was 0.668 µM. For the same compound, the TGI (NCI-H460 NSCLC) was 90.1 µM, the GI50 (SF-295 CNS) was 2.12 µM and the TGI (SF-295 CNS) was 18.7 µM. The GI50 (HOP-62 NSCLC) was 10.3 µM, the TGI (HOP-62 NSCLC) was > 100 µM and the GI50 (T-47D breast) was 0.724 µM. The TGI (T-47D breast) was 10.2 µM, the GI50 (MDA-MB-231 breast) was 3.68 µM and the TGI (MDA-MB-231 breast) was > 100 µM. For the same compound, the GI50 (HT29 colon) was 1.08 µM, the TGI (HT29 colon) was 21.7 µM and the GI50 (NCI-H226 lung) was 2.76 µM. For the same compound, the TGI (NCI-H226 lung) was 56.7 µM, the GI50 (COLO 205 colon) was 0.793 µM and the TGI (COLO 205 colon) was 4.64 µM. The GI50 (HCC-2998 colon) was 0.671 µM and the TGI (HCC-2998 colon) was 6.09 µM.
